These results are taken from publication PMC11876601 (Molecular Systems Biology, 2025).

Like-named read-outs stand apart in the source and are kept apart here. A value given as a limit tells only on which side of the number the result lay.

Common to all, as to experiment: cells
The test system of assay [1] is FAMPAC. Set-up: ATPlite luminescence viability of PDAC cell lines, 11-dose single-agent curves, 4-parameter fit. As to conditions: 72 h, read-out: EC50 [nM]. An outline of the steps: (§1)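 Drug-combination screening used cells plated at 1000 to 5000 per well one day before treatment. Final DMSO was 0.2%. Each plate held untreated negative-control wells and 5 µM staurosporine positive-control wells.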

The subject of assay [2] is MiaPaCa-2. Set-up: ATPlite luminescence viability of PDAC cell lines, 11-dose single-agent curves, 4-parameter fit. As to conditions: Homo sapiens, MIA PaCa-2, 72 h, read-out: EC50 [nM]. An outline of the steps: as §1
The test system of assay [3] is PSN-1. Also noted: ATPlite luminescence viability of PDAC cell lines, 11-dose single-agent curves, 4-parameter fit. The note with it: Homo sapiens, PSN1, 72 h, read-out: EC50 [nM]. An outline of the steps: as §1
Assay [4] concerns PaTu-8988-T. Also noted: ATPlite luminescence viability of PDAC cell lines, 11-dose single-agent curves, 4-parameter fit. As to conditions: Homo sapiens, PaTu 8988t, 72 h, read-out: EC50 [nM]. The method, boiled down: as §1
Assay [5] deals with Suit2-07. Also noted: ATPlite luminescence viability of PDAC cell lines, 11-dose single-agent curves, 4-parameter fit. The note with it: 72 h, read-out: EC50 [nM]. The method, boiled down:
as §1

A further assay has as its system AsPC-1. Also noted: Viability of PDAC cell lines, ATPlite luminescence, 11-dose single-agent curve fit. As to conditions: Homo sapiens, ASPC1, 72 h, read-out: EC50 [nM]. The method, boiled down: (§2)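 screening used cells plated at 1000 to 5000 per well one day before treatment. Final DMSO was 0.2%. Each plate held untreated negative-control wells and 5 µM staurosporine positive-control wells.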

A further assay relates to Capan-1. Set-up: Viability of PDAC cell lines, ATPlite luminescence, 11-dose single-agent curve fit. As to conditions: Homo sapiens, CAPAN-1, 72 h, read-out: EC50 [nM]. An outline of the steps:
as §2

The test system of assay [6] is Colo-357. Also noted: Viability of PDAC cell lines, ATPlite luminescence, 11-dose single-agent curve fit. As to conditions: Homo sapiens, COLO357, 72 h, read-out: EC50 [nM]. The method, boiled down: as §2
Assay [7] has as its system Dan-G. Also noted: Viability of PDAC cell lines, ATPlite luminescence, 11-dose single-agent curve fit. The note with it: 72 h, read-out: EC50 [nM]. An outline of the steps:
as §2

In the next assay the test system is HPDE. Also noted: Viability of PDAC cell lines, ATPlite luminescence, 11-dose single-agent curve fit. As to conditions: HPDE, 72 h, read-out: EC50 [nM]. An outline of the steps: as §2
In another assay the test system is HuP-T4. Also noted: Viability of PDAC cell lines, ATPlite luminescence, 11-dose single-agent curve fit. The note with it: Homo sapiens, HuP-T4, 72 h, read-out: EC50 [nM]. An outline of the steps: as §2
A further assay concerns PANC-1. Set-up: Viability of PDAC cell lines, ATPlite luminescence, 11-dose single-agent curve fit. The note with it: Homo sapiens, PANC-1, 72 h, read-out: EC50 [nM]. The method, boiled down:
as §2

Assay [8] deals with Colo-357. Also noted: ATPlite luminescence viability of PDAC cell lines, 11-dose single-agent curves, 4-parameter fit. The note with it: Homo sapiens, COLO357, 72 h, read-out: EC50 [nM]. The method, boiled down: as §1
Assay [9] concerns Dan-G. Set-up: ATPlite luminescence viability of PDAC cell lines, 11-dose single-agent curves, 4-parameter fit. As to conditions: 72 h, read-out: EC50 [nM]. The method, boiled down: as §1
The subject of another assay is BxPC-3. Set-up: Viability of PDAC cell lines, ATPlite luminescence, 11-dose single-agent curve fit. The note with it: Homo sapiens, BXPC-3, 72 h, read-out: EC50 [nM]. An outline of the steps: as §2
The test system of assay [10] is FAMPAC. Set-up: Viability of PDAC cell lines, ATPlite luminescence, 11-dose single-agent curve fit. The note with it: 72 h, read-out: EC50 [nM]. An outline of the steps: as §2
The subject of assay [11] is MiaPaCa-2. Also noted: Viability of PDAC cell lines, ATPlite luminescence, 11-dose single-agent curve fit. As to conditions: Homo sapiens, MIA PaCa-2, 72 h, read-out: EC50 [nM]. An outline of the steps:
as §2

Assay [12] deals with PSN-1. Set-up: Viability of PDAC cell lines, ATPlite luminescence, 11-dose single-agent curve fit. As to conditions: Homo sapiens, PSN1, 72 h, read-out: EC50 [nM]. An outline of the steps: as §2
Assay [13] deals with PaTu-8988-T. Also noted: Viability of PDAC cell lines, ATPlite luminescence, 11-dose single-agent curve fit. As to conditions: Homo sapiens, PaTu 8988t, 72 h, read-out: EC50 [nM]. The method, boiled down: as §2
Assay [14] relates to Suit2-07. Set-up: Viability of PDAC cell lines, ATPlite luminescence, 11-dose single-agent curve fit. The note with it: 72 h, read-out: EC50 [nM]. The method, boiled down:
as §2

For `N#CCNC(=O)c1ccc(-c2ccnc(Nc3ccc(N4CCOCC4)cc3)n2)cc1` [Momelotinib], the EC50 is over 10000 nM in the assay on FAMPAC [1]; over 10000 nM with MiaPaCa-2 [2]; over 10000 nM in the assay with PSN-1 [3]; over 10000 nM in the assay on PaTu-8988-T [4]; 5780 nM in the assay on Suit2-07 [5]; 4110 nM in the assay on AsPC-1. For the same compound, the EC50 with Capan-1 turned out to be 9140 nM; with Colo-357 [6], 953 nM; in the assay on Dan-G [7], 6780 nM; with HPDE, 8470 nM; in the assay with HuP-T4, 2670 nM; in the assay with PANC-1 it was 8650 nM.
In the case of `Cc1cc(Nc2ncnc3ccc(NC4=NC(C)(C)CO4)cc23)ccc1Oc1ccn2ncnc2c1` [Tucatinib], the EC50 was 240 nM in the assay with Colo-357 [8]; 222 nM in the assay with Dan-G [9]; over 10000 nM with AsPC-1; 1010 nM with BxPC-3; 121 nM in the assay on Capan-1; 7060 nM in the assay on FAMPAC [10]. Moreover, the EC50 is 3660 nM with HPDE; 292 nM in the assay on HuP-T4; 7710 nM in the assay on MiaPaCa-2 [11]; 5670 nM in the assay with PANC-1; 24.4 nM in the assay with PSN-1 [12]; over 10000 nM in the assay on PaTu-8988-T [13]. In addition, the EC50 with Suit2-07 [14] was over 10000 nM.
For the compound `CC[C@H](Nc1ncnc2[nH]cnc12)c1nc2cccc(F)c2c(=O)n1-c1ccccc1` [Idelalisib], the EC50 was 3360 nM in the assay on Colo-357 [8]; 2130 nM with Dan-G [9]; 2530 nM in the assay on AsPC-1; 3910 nM in the assay on BxPC-3; 9330 nM with Capan-1; over 10000 nM with FAMPAC [10]. Also, the EC50 in the assay with HPDE is 9240 nM; in the assay on HuP-T4, 754 nM; in the assay with MiaPaCa-2 [11], 8760 nM; with PANC-1, 3010 nM; in the assay on PSN-1 [12] it was 545 nM; in the assay with PaTu-8988-T [13] it was 10000 nM. Also, in the assay with Suit2-07 [14], the EC50 was determined as 5950 nM.
As for `Cc1cc2c(F)c(Oc3ncnn4cc(OC[C@@H](C)OC(=O)[C@H](C)N)c(C)c34)ccc2[nH]1` [Brivanib alaninate], the EC50 was 3560 nM in the assay with Colo-357 [8]; 3000 nM in the assay on AsPC-1; over 10000 nM with BxPC-3; over 10000 nM in the assay on Capan-1; 3820 nM in the assay on Dan-G [7]; over 10000 nM in the assay with FAMPAC [10]. The EC50 in the assay on HPDE was 3160 nM; with HuP-T4, 2460 nM; in the assay with MiaPaCa-2 [11] it was 3140 nM; in the assay on PANC-1, 3760 nM; in the assay on PSN-1 [12] it was 3990 nM; in the assay with PaTu-8988-T [13] it was over 10000 nM. For the same compound, in the assay on Suit2-07 [14], the EC50 was over 10000 nM.
With `Cc1cc2cc(Oc3ccnc(Nc4cccc(CS(=O)(=O)NCCN(C)C)c4)n3)ccc2[nH]1` [Sulfatinib], the EC50 in the assay with MiaPaCa-2 [2] was 3080 nM; with PaTu-8988-T [4], over 10000 nM; with AsPC-1, over 10000 nM; in the assay on BxPC-3 it was 4560 nM; with Capan-1, 3530 nM; with Colo-357 [6], 6810 nM. The EC50 in the assay with Dan-G [7] is over 10000 nM; with FAMPAC [10] it was over 10000 nM; with HPDE, 5550 nM; in the assay on HuP-T4, 1900 nM; in the assay on PANC-1 it was 7980 nM; in the assay on PSN-1 [12], 5780 nM. For the same compound, the EC50 with Suit2-07 [14] was over 10000 nM.
`COc1cc2nccc(Oc3ccc(NC(=O)C4(C(=O)Nc5ccc(F)cc5)CC4)cc3)c2cc1OC` [Cabozantinib]: the EC50 with Dan-G [9] is over 10000 nM; with MiaPaCa-2 [2] it was over 10000 nM; in the assay on PaTu-8988-T [4], 4020 nM; in the assay with AsPC-1, over 10000 nM; in the assay on BxPC-3, over 10000 nM; with Capan-1 it was 6600 nM. Besides, the EC50 in the assay on Colo-357 [6] was 4380 nM; in the assay on FAMPAC [10], over 10000 nM; in the assay with HPDE, over 10000 nM; in the assay with HuP-T4, 3810 nM; with PANC-1, 3550 nM; in the assay with PSN-1 [12] it was over 10000 nM. Besides, the EC50 in the assay with Suit2-07 [14] is over 10000 nM.

Broadly, the EC50 is the concentration that produces a half-maximal response.
